From patent US11091749B2, “Deimmunized lysostaphin and methods of use” (TRUSTEES OF DARTMOUTH COLLEGE, priority 2014, dated 2021)
Like-named read-outs stand apart in the source and are kept apart here. Where no end group is shown, it is not given here.

What was measured:
Assay in all cases: MHC II competition binding assay
DRB1*1501 = molecular target: T1, DRB1*1501 (Homo sapiens, UniProt P01903+P01911)
T1 construct: purchased Benaroya Research Institute (Seattle, Wash.)
Protocol: MHC Binding Assays. […] Briefly, 100 nM biotinylated control peptides composed of known peptide antigens for each MHC II allele were incubated in polypropylene 384-well plates with 50 nM purified recombinant MHC II protein and serial dilutions of LST or variant peptide fragments (100 μM to 10 nM). Peptide-MHC II complexes were captured from equilibrated solutions using the conformation specific anti-HLA-DR antibody L243 coated on high binding ELISA plates. Bound control peptide was quantified using the DELFIA streptavidin-Europium conjugate and time resolved fluorescence (SpectraMax Gemini Fluorescence Microplate Reader).

DRB1*0801 = DRB1*0801 (Homo sapiens, UniProt P01903+P01911, A100R/A103L/A169T/D86S/F76Y/H45Y/I96F/K41T/L162R/M171V/P40S/Q125H/Q178H/Q39Y/Q99D/R218S/R42G/S66Y/V115G/W38E)
Protocol: (§1) MHC Binding Assays. MHC II competition binding assays were performed using a 384-well high throughput assay as previously described (Salvat, et al. (2014) supra). Binding assays were performed for the eight alleles: DRB1*0101, 0301, 0401, 0701, 0801, 1101, 1301, and 1501. Briefly, 100 nM biotinylated control peptides composed of known peptide antigens for each MHC II allele were incubated in polypropylene 384-well plates with 50 nM purified recombinant MHC II protein and serial dilutions of LST or variant peptide fragments (100 μM to 10 nM). Peptide-MHC II complexes were captured from equilibrated solutions using the conformation specific anti-HLA-DR antibody L243 coated on high binding ELISA plates. Bound control peptide was quantified using the DELFIA streptavidin-Europium conjugate and time resolved fluorescence (SpectraMax Gemini Fluorescence Microplate Reader).

DRB1*0701 = DRB1*0701 (Homo sapiens, UniProt P01903+P01911, A100R/A102G/A103Q/D57E/D86V/E43K/F76Y/K127E/L162R/M171V/P40G/Q125H/Q99D/R33Q/R42Y/R54Q/S133A/S66F/T210M/V115G/Y107V/Y59L/Y89S)
Protocol: as §1

DRB1*0401 = molecular target: T2, DRB1*0401 (Homo sapiens, UniProt P01903+P01911, A100K/A169T/F76Y/I96L/K127E/L162R/M171V/N62H/P40V/Q125Y/R42H/S133A/S149N/S66Y/V115G/V209L/W38E)
T2 construct: purchased Benaroya Research Institute (Seattle, Wash.)
Protocol: as §1

DRB1*1101 = DRB1*1101 (Homo sapiens, UniProt P01903+P01911, A100R/A169T/A87E/I96F/K41T/L162R/M171V/P40S/Q125H/Q178H/Q39Y/Q99D/R42S/S66Y/T262R/V115G/W38E)
Protocol: as §1

DRB1*0301 = molecular target: T3, DRB1*0301 (Homo sapiens, UniProt P01903+P01911, A100K/A102G/A103R/A169T/F55Y/I96L/K41T/L162R/M171V/P40S/Q125H/Q178H/Q39Y/R42S/S66N/T106N/T262R/W38E/Y61H)
T3 construct: purchased Benaroya Research Institute (Seattle, Wash.)
Protocol: as §1

DRB1*0101 = molecular target: T4, DRB1*0101 (Homo sapiens, UniProt P01903+P01911, A100R/D57E/F55L/F60I/F76Y/I96L/L162R/M171V/P40L/Q125E/R42F/V115G/Y59C)
T4 construct: purchased Benaroya Research Institute (Seattle, Wash.)
Protocol: as §1

DRB1*1301 = DRB1*1301 (Homo sapiens, UniProt P01903+P01911, A100E/A169T/K41T/L162R/M171V/P40S/Q125H/Q178H/Q39Y/Q99D/R42S/S66N/T262R/W38E/Y61H)
Protocol: as §1

[1] = synthetic peptide competing with biotinylated control peptide, read-out: IC50 1501
[2] = synthetic peptide competing with biotinylated control peptide, read-out: IC50 0701
[3] = synthetic peptide competing with biotinylated control peptide, read-out: IC50 0401
[4] = synthetic peptide competing with biotinylated control peptide, read-out: IC50 0301
[5] = synthetic peptide competing with biotinylated control peptide, read-out: IC50 0101
[6] = synthetic peptide competing with biotinylated control peptide, read-out: IC50 0801

In the case of HLHFQRMVGDFSNPTAQ [Peptide 21_22], the IC50 (DRB1*1501) is reported as < 0.01 µM, the IC50 (DRB1*0801) is reported as 210 µM and the IC50 (DRB1*0701) is reported as > 250 µM. The IC50 (DRB1*0401) was < 0.01 µM, the IC50 (DRB1*1101) was 28.5 µM and the IC50 (DRB1*0301) was 77.4 µM. The IC50 (DRB1*0101) was < 0.01 µM and the IC50 (DRB1*1301) was > 250 µM.

In the case of HLHFQRMVGSFSNPTAQ [Peptide N121G], the IC50 (DRB1*1501) is reported as < 0.01 µM, the IC50 (DRB1*0801; DRB1*0801, read-out: IC50) is reported as > 250 µM and the IC50 (DRB1*0701; DRB1*0701, read-out: IC50) is reported as 17.4 µM. The IC50 (DRB1*0401; DRB1*0401, read-out: IC50) was 6.13 µM, the IC50 (DRB1*1101; DRB1*1101, read-out: IC50) was 6.41 µM and the IC50 (DRB1*0301; DRB1*0301, read-out: IC50) was > 250 µM. For the same substance, the IC50 (DRB1*0101; DRB1*0101, read-out: IC50) was < 0.01 µM and the IC50 (DRB1*1301; DRB1*1301, read-out: IC50) was > 250 µM.

For HLHFQRMVNDFSNPTAQ [Peptide S122D], the IC50 (DRB1*1501) was < 0.01 µM, the IC50 (DRB1*0801) was 150 µM and the IC50 (DRB1*0701) was > 250 µM. For the same substance, the IC50 (DRB1*0401) was < 0.01 µM, the IC50 (DRB1*1101) was < 0.01 µM and the IC50 (DRB1*0301) was 9.42 µM. The IC50 (DRB1*0101) was < 0.01 µM and the IC50 (DRB1*1301) was > 250 µM.

For HLHFQRMVNSFGNPTAQ [Peptide S124G], the IC50 (DRB1*1501; DRB1*1501, read-out: IC50) was < 0.01 µM, the IC50 (DRB1*0801; DRB1*0801, read-out: IC50) was > 250 µM and the IC50 (DRB1*0301; DRB1*0301, read-out: IC50) was > 250 µM. The IC50 (DRB1*0101; DRB1*0101, read-out: IC50) was < 0.01 µM and the IC50 (DRB1*1301; DRB1*1301, read-out: IC50) was > 250 µM.

HLHFQRMVNSFSNPTAQ [Design C5WT] was tested, and the IC50 (DRB1*1501; DRB1*1501, read-out: IC50) was < 0.01 µM, the IC50 (DRB1*0801; DRB1*0801, read-out: IC50) was 22 µM and the IC50 (DRB1*0701; DRB1*0701, read-out: IC50) was 15.2 µM. The IC50 (DRB1*0401; DRB1*0401, read-out: IC50) was 0.05 µM, the IC50 (DRB1*1101; DRB1*1101, read-out: IC50) was < 0.01 µM and the IC50 (DRB1*0301; DRB1*0301, read-out: IC50) was > 250 µM. For the same substance, the IC50 (DRB1*1301; DRB1*1301, read-out: IC50) was > 250 µM.

In the case of HLHFQTMVNDFGNPTAQ [Peptide 182224], the IC50 (DRB1*1501) is reported as 0.42 µM, the IC50 (DRB1*0801) is reported as > 250 µM and the IC50 (DRB1*0701) is reported as > 250 µM. The IC50 (DRB1*0401) was 7.52 µM, the IC50 (DRB1*1101) was 14.1 µM and the IC50 (DRB1*0301) was 133 µM. For the same substance, the IC50 (DRB1*0101) was 7.43 µM and the IC50 (DRB1*1301) was > 250 µM.

In the case of HLHFQTMVNDFSNPTAQ [Peptide 18_22], the IC50 (DRB1*1501) is reported as < 0.01 µM, the IC50 (DRB1*0801) is reported as > 250 µM and the IC50 (DRB1*0701) is reported as 111 µM. For the same substance, the IC50 (DRB1*0401) was < 0.01 µM, the IC50 (DRB1*1101) was < 0.01 µM and the IC50 (DRB1*0301) was 28.2 µM. For the same substance, the IC50 (DRB1*0101) was < 0.01 µM and the IC50 (DRB1*1301) was > 250 µM.

In the case of HLHFQTMVNSFSNPTAQ [Peptide R118T], the IC50 (DRB1*1501) is reported as < 0.01 µM, the IC50 (DRB1*0801) is reported as 57.7 µM and the IC50 (DRB1*0701) is reported as 23.1 µM. For the same substance, the IC50 (DRB1*0401) was < 0.01 µM, the IC50 (DRB1*1101) was < 0.01 µM and the IC50 (DRB1*0301) was 68.4 µM. The IC50 (DRB1*0101) was < 0.01 µM and the IC50 (DRB1*1301) was > 250 µM.

“Leu83Met: full-length lysostaphin single point mutant” was tested, and the “binder class DRB1*1501” value (DRB1*1501) was “moderate (moderate if an IC50 value was in the 0.1-1 μM range)”, the “fold decrease in binding vs wild-type peptide, 0801” value (DRB1*0801) was “approximately five-fold” and the “binder class DRB1*0701” value (DRB1*0701) was “moderate (moderate if an IC50 value was in the 0.1-1 μM range)”. For the same substance, the “fold decrease in binding vs wild-type peptide, 0701” value (DRB1*0701) was “two-fold”, the “fold reduction in binding vs wild-type peptide, 1101” value (DRB1*1101) was “ten-fold” and the “binder class DRB1*0301” value (DRB1*0301) was “non-binder (All peptides above 10 μM were considered non-binders)”. The “binder class DRB1*0101” value (DRB1*0101) was “weak (weak if an IC50 value was in the 1-10 μM range)” and the “binder class DRB1*1301” value (DRB1*1301) was “weak (weak if an IC50 value was in the 1-10 μM range)”.

In the case of “Lys46His: full-length lysostaphin single point mutant”, the “fold decrease in binding vs wild-type peptide, 0101” value (DRB1*0101) is reported as “two-fold”.

For SAQWLGNYKKGYGYG [Design N12G], the IC50 (DRB1*1501; [1]) was > 250 µM, the IC50 (DRB1*0701; [2]) was > 250 µM and the IC50 (DRB1*0401; [3]) was > 250 µM. The IC50 (DRB1*0301; [4]) was > 250 µM, the IC50 (DRB1*0101; [5]) was < 0.01 µM and the IC50 (DRB1*1301; synthetic peptide competing with biotinylated control peptide, read-out: IC50 1301) was > 250 µM.

SAQWLNHYKKGYGYG [Design N13H] was tested, and the IC50 (DRB1*1501; [1]) was > 250 µM, the IC50 (DRB1*0801; [6]) was > 250 µM and the IC50 (DRB1*0701; [2]) was > 250 µM. For the same substance, the IC50 (DRB1*0401; [3]) was > 250 µM, the IC50 (DRB1*0301; [4]) was > 250 µM and the IC50 (DRB1*0101; [5]) was > 250 µM.

SAQWLNNYKKGYGYG [Design C1WT] was tested, and the IC50 (DRB1*1501; [1]) was 101 µM, the IC50 (DRB1*0801; [6]) was 13.7 µM and the IC50 (DRB1*0701; [2]) was > 250 µM. The IC50 (DRB1*0401; [3]) was > 250 µM and the IC50 (DRB1*0301; [4]) was > 250 µM.

For “Tyr93His/Lys95Glu/Ile99Gln: cluster 4 synthetic peptide with three mutations (Table 15) (DHVEAGQQIGWSGSTGY)”, the “binder class DRB1*1501” value (DRB1*1501) was “weak/non-binder” and the “binder class DRB1*0101” value (DRB1*0101) was “weak or non-binder”.

In the case of “Tyr93His/Lys95Glu: cluster 4 synthetic peptide with Tyr93His and Lys95Glu (Table 15) (DHVEAGQIIGWSGSTGY)”, the “binder class DRB1*0101” value (DRB1*0101) is reported as “moderate (moderate if an IC50 value was in the 0.1-1 μM range)”.
